According to PMC9388906, “Dual inhibition of the Echinococcus multilocularis energy metabolism” (Frontiers in Veterinary Science, 2022):
pEC50, pIC50: −log10 of the molar value. Where two headings read alike, the source gives them in different places.

Assays:
[1] = tested on: E. multilocularis metacestodes (isolate Sval); experiment: PGI assay (damage marker release), metacestodes, isolate Sval; format: cell-based, Echinococcus multilocularis; conditions: for cytotoxicity at 10 µM: Echinococcus multilocularis, 120 h, read-out: Metacestodes, PGI assay, relative to positive control Tx-100; for Activity in PGI assay (activity call): threshold >20% of Tx-100
Procedure: (§1) To assess the in vitro efficacy of ELQs against E. multilocularis, (a) the damage-marker phosphoglucose isomerase (PGI) assay was applied against metacestodes, and (b) the germinal layer (GL) cell viability assay was applied to measure effects on isolated GL cells. Both assays are described in more detail below. The drug testing strategy was as follows: PGI assay was first conducted for overview screening at 10 μM with the parasite isolates H95 and Sval. The GL cell viability assay was performed at 0.1 μM with both isolates H95 and Sval.
(§2) The PGI assay measures the amount of PGI that metacestodes release into the medium when damaged ([17], [32]). The purification and in vitro drug incubation of E. multilocularis metacestodes was conducted according to Stadelmann et al. ([32]). In short, cultures were applied for in vitro drug testing at the age of 6-8 weeks. E. multilocularis metacestodes were therefore purified by the addition of 2% saccharose and washed extensively with PBS. Purified metacestodes were suspended 1:3 with DMEM (without phenol red, supplemented with 100 U/mL penicillin, 100 μg/mL streptomycin) and distributed in 48-well plates (1 mL/well, thus 300 μL pure metacestode vesicles per well). […] The corresponding DMSO concentration was used as negative control and Tx-100 (0.1% final concentration) was used for total damage (positive control). […] After 5 days, relative PGI activities were measured and calculated as percentage of the Tx-100 control as described previously in Rufener et al. ([17]). They were calculated as mean values and standard deviations for each triplicate. […] EC50 measurements were performed twice, and averages and standard deviations of these repeated tests are given.

[2] = tested on: E. multilocularis GL cells (isolate H95); experiment: GL cell viability assay (CellTiter-Glo), isolate H95; format: cell-based, Echinococcus multilocularis; conditions: for viability at 0.1 µM: Echinococcus multilocularis, 120 h, read-out: GL cells, viability via ATP measurements, relative to DMSO control
Procedure: as §1
(§3) The isolation of E. multilocularis GL cells was done as described previously ([17]) with minor modifications. Fifteen units of GL cells were distributed to each well of a 384 well plate in a total volume of 12.5 μL conditioned medium. The different ELQs were added to the wells to 0.1 μM, in quadruplicates. As a negative control 0.1% DMSO was used. The 384-well plate was incubated for 5 days at 37°C under humid nitrogen atmosphere. Thereafter, viability of the GL cells under different drug treatments was assessed by CellTiter-Glo® (Promega AG, Dübendorf, Switzerland). The CellTiter-Glo reagent was complemented with 1% Tx-100. The luciferase bioluminescence was measured at 530 nm by using the Enspire multilabel reader (PerkinElmer Life Sciences, Schwerzenbach, Switzerland). Using Microsoft Excel, the blank values were subtracted from the experimental values and the relative viability compared to DMSO was calculated. Viabilities were calculated as mean values and standard deviations for each quadruplicate.

[3] = tested on: E. multilocularis GL cells (isolate Sval); experiment: GL cell viability assay (CellTiter-Glo), isolate Sval; format: cell-based, Echinococcus multilocularis; conditions: for viability at 0.1 µM: Echinococcus multilocularis, 120 h, read-out: GL cells, viability via ATP measurements, relative to DMSO control
Procedure: as §1, §3

[4] = tested on: E. multilocularis metacestodes (isolate H95); experiment: PGI assay (damage marker release), metacestodes, isolate H95; format: cell-based, Echinococcus multilocularis; conditions: for cytotoxicity at 10 µM: read-out: Metacestodes, PGI assay, relative to positive control Tx-100; for pEC50: read-out: EC50 metacestodes
Procedure: as §1, §2

[5] = tested on: Reuber rat hepatoma (Rh) cells; experiment: Mammalian cell toxicity, Alamar Blue assay; format: cell-based
Procedure: Compounds were added in a serial dilution (30–0.23 μM, 1:2 dilution steps) and in triplicates. Plates were incubated at 37°C, 5% CO2 and humid atmosphere for 5 days. Resazurin was added to a final concentration of 10 mg/L to each well, and fluorescence measured at 530 nm on an Enspire multilabel plate reader over 3 h. By using Microsoft Office Excel 2010 and a logit-log transformation of the relative growth, IC50 values were calculated. The test was performed twice for each compound, and respective averages and standard deviations are given.

[6] = tested on: E. multilocularis metacestodes; parameters: method as in PMID 30396011; conditions: TEM of metacestodes; cited from earlier work
[7] = tested on: E. multilocularis metacestodes; experiment: PGI assay, single and combination treatment under normoxic and anaerobic conditions; format: cell-based, Echinococcus multilocularis; conditions: 10 μM each; 5 days; anaerobic (0% O2)
Procedure: The PGI assay measures the amount of PGI that metacestodes release into the medium when damaged ([17], [32]). The purification and in vitro drug incubation of E. multilocularis metacestodes was conducted according to Stadelmann et al. ([32]). In short, cultures were applied for in vitro drug testing at the age of 6-8 weeks. E. multilocularis metacestodes were therefore purified by the addition of 2% saccharose and washed extensively with PBS. Purified metacestodes were suspended 1:3 with DMEM (without phenol red, supplemented with 100 U/mL penicillin, 100 μg/mL streptomycin) and distributed in 48-well plates (1 mL/well, thus 300 μL pure metacestode vesicles per well). […] The corresponding DMSO concentration was used as negative control and Tx-100 (0.1% final concentration) was used for total damage (positive control). […] After 5 days, relative PGI activities were measured and calculated as percentage of the Tx-100 control as described previously in Rufener et al. ([17]). They were calculated as mean values and standard deviations for each triplicate. EC50 calculations were calculated based on logit-log transformed values in Microsoft Office Excel 2010. EC50 measurements were performed twice, and averages and standard deviations of these repeated tests are given.
For double inhibition of the mitochondrial energy pathways of E. multilocularis, quinazoline as an inhibitor of the anaerobic MD ([29]) was applied in combination with ELQ-400 as an inhibitor of the ETC. Both compounds were tested either alone or in combination at 10 μM with the above-described PGI assay for 5 days for their activity against E. multilocularis metacestodes. PGI assays were done in triplicates and two times independently. […] Results of the assays were calculated as mean values and standard deviations for each biological triplicate were calculated as relative percentage to the Tx-100 control. To assess direct effects on the MD, succinate levels were measured in the supernatants of the PGI assay, as described below. […]

[8] = tested on: E. multilocularis metacestodes; experiment: Succinate concentrations in culture supernatants (malate dismutation activity); format: cell-based, Echinococcus multilocularis; conditions: 10 μM; 5 days; anaerobic
Procedure: Both compounds were tested either alone or in combination at 10 μM with the above-described PGI assay for 5 days for their activity against E. multilocularis metacestodes. PGI assays were done in triplicates and two times independently. […] To assess direct effects on the MD, succinate levels were measured in the supernatants of the PGI assay, as described below. To determine whether differences between groups were significant, data was subjected to student's t-test analysis and P-values below 0.05 are given.
Succinate measurements in supernatants of drug-treated E. multilocularis metacestodes was performed with the “Succinic Acid Assay Kit” (Megazyme, Bray, Ireland). […] 20 μL of each diluted (1:20) sample or standard was used in triplicate for succinate measurements in 96-well plates (flat bottom, Greiner Bio-One GmbH, Frickenhausen, Germany). The reaction mix buffer was prepared as described in the supplier manual: per well 180 μL H2O, 20 μL solvent 1 (buffer, pH 8.4, sodium azide 0.02% w/v), 20 μL solvent 2 (NADH plus stabilizer), 20 μL solvent 3 (ATP, PEP, and CoA) and 2 μL solvent 4 (pyruvate kinase plus L-lactate dehydrogenase suspension) were added. After a 180 s pre-incubation time, a first measurement at 340 nm was done on an EnSpire multilabel plate reader (PerkinElmer Life Sciences, Schwerzenbach, Switzerland). 10 μL solvent 5 (succinyl-CoA synthetase suspension; 1:10 diluted) were then added to each well and the plate was read at 340 nm for 1 h every minute. […] Succinate levels are shown as mean values with standard deviations of biological triplicates. To determine whether differences between groups were significant, data was subjected to student's t-test analysis and P-values below 0.05 are given.

[9] = isolate Sval, 10 μM, 5 days, normoxic, mean (SD) of triplicates, active if >20%
[10] = isolate H95, 0.1 μM, 5 days, nitrogen atmosphere, mean (SD), active if <30%
[11] = isolate Sval, 0.1 μM, 5 days, nitrogen atmosphere, mean (SD), active if <30%
[12] = Echinococcus multilocularis, 120 h, isolate H95, 10 μM, 5 days, normoxic, mean (SD) of triplicates, active if >20%
[13] = Echinococcus multilocularis, 120 h
[14] = Rattus norvegicus, 120 h, confluent Rh cells, Alamar blue, 5 days, range tested 30–0.23 μM, mean (SD) of two tests, read-out: IC50 Rh confluent
[15] = Rattus norvegicus, 120 h, preconfluent Rh cells, Alamar blue, 5 days, range tested 30–0.23 μM, mean (SD) of two tests, read-out: IC50 Rh preconfluent
[16] = Echinococcus multilocularis, 120 h, isolate H95, PGI assay, 5 days, range tested 30–0.12 μM, mean (SD) of two tests
[17] = isolate H95, 10 μM, 5 days, normoxic, mean (SD) of triplicates, active if >20%

## CCCCCCCc1c(C)[nH]c2cc(OC)ccc2c1=O [ELQ-100]
[1]; [9]
  cytotoxicity at 10 µM: 0%
[2]; [10]
  viability at 0.1 µM: 100%
[3]; [11]
  viability at 0.1 µM: 57.9%
[4]; [12]
  cytotoxicity at 10 µM: 1.4%

## CCCCCCCc1c(C)[nH]c2cc(F)cc(F)c2c1=O [ELQ-121]
[5]; Rattus norvegicus, 120 h, read-out: IC50 Rh confluent
  pIC50: < 4.52
[5]; Rattus norvegicus, 120 h, read-out: IC50 Rh preconfluent
  pIC50: < 4.52
[1]
  cytotoxicity at 10 µM: 20.9%
[1]; isolate Sval, 10 μM
  Activity in PGI assay (activity call): activity
[2]
  viability at 0.1 µM: 1%
[3]
  viability at 0.1 µM: 7.3%
[4]; [13]
  pEC50: 5.92
  cytotoxicity at 10 µM: 15.2%

## CCCCCCCc1c(C)[nH]c2ccccc2c1=O [ELQ-127]
[1]; [9]
  cytotoxicity at 10 µM: 2.5%
[2]; [10]
  viability at 0.1 µM: 17.2%
[3]; [11]
  viability at 0.1 µM: 40.4%
[4]; [12]
  cytotoxicity at 10 µM: 11.7%

## CCCCCCCc1c(C)[nH]c2cccc(F)c2c1=O [ELQ-136]
[5]; [14]
  pIC50: < 4.52
[5]; [15]
  pIC50: < 4.52
[1]; [9]
  cytotoxicity at 10 µM: 7%
[2]; [10]
  viability at 0.1 µM: 8.4%
[3]; [11]
  viability at 0.1 µM: 15.1%
[4]; [12]
  cytotoxicity at 10 µM: 21.4%
[4]; [16]
  pEC50: 6.66

## Cc1[nH]c2ccccc2c(=O)c1-c1ccc(Oc2ccc(OC(F)(F)F)cc2)cc1 [ELQ-271]
[5]; confluent Rh cells, Alamar blue, 5 days, range tested 30–0.23 μM, mean (SD) of two tests, read-out: IC50 Rh confluent
  pIC50: < 4.52
[5]; preconfluent Rh cells, Alamar blue, 5 days, range tested 30–0.23 μM, mean (SD) of two tests, read-out: IC50 Rh preconfluent
  pIC50: 5.06
[1]; [9]
  Metacestodes, PGI assay, relative to positive control Tx-100: 56.9 (4.3) %
[1]; isolate Sval, 10 μM
  Activity in PGI assay (activity call): activity
[2]; [10]
  GL cells, viability via ATP measurements, relative to DMSO control: 2.7 (1.6) %
[3]; [11]
  GL cells, viability via ATP measurements, relative to DMSO control: 25.4 (7.2) %
[4]; [17]
  Metacestodes, PGI assay, relative to positive control Tx-100: 33 (1.7) %
[4]; isolate H95, PGI assay, 5 days, range tested 30–0.12 μM, mean (SD) of two tests
  pEC50: 6.62

## COc1cc2[nH]c(C)c(-c3ccc(Oc4ccc(OC(F)(F)F)cc4)cc3)c(=O)c2cc1Cl [ELQ-300]
[1]; [9]
  Metacestodes, PGI assay, relative to positive control Tx-100: 7.6 (1.1) %
[2]; [10]
  GL cells, viability via ATP measurements, relative to DMSO control: 84.0 (7.0) %
[3]; [11]
  GL cells, viability via ATP measurements, relative to DMSO control: 46.9 (9.6) %
[4]; [17]
  Metacestodes, PGI assay, relative to positive control Tx-100: 6.6 (2.2) %

## COc1cc2[nH]c(C)c(-c3ccc(Oc4ccc(OC(F)(F)F)cc4)cc3)c(=O)c2cc1F [ELQ-316]
[1]; [9]
  Metacestodes, PGI assay, relative to positive control Tx-100: 4.6 (1.3) %
[2]; [10]
  GL cells, viability via ATP measurements, relative to DMSO control: 81.1 (9.5) %
[3]; [11]
  GL cells, viability via ATP measurements, relative to DMSO control: 58 (5.3) %
[4]; [17]
  Metacestodes, PGI assay, relative to positive control Tx-100: 21.4 (0.1) %

## CCCCCCCc1c(C)[nH]c2cc(OC)c(F)cc2c1=O [ELQ-433]
[1]; [9]
  cytotoxicity at 10 µM: 1.8%
[2]; [10]
  viability at 0.1 µM: 96.4%
[3]; [11]
  viability at 0.1 µM: 62.1%
[4]; [12]
  cytotoxicity at 10 µM: 4.3%

## CCCCCCCCCCCc1c(C)[nH]c2cc(OC)c(Cl)cc2c1=O [ELQ-434]
[1]; [9]
  cytotoxicity at 10 µM: 0.6%
[2]; [10]
  viability at 0.1 µM: 33.3%
[3]; [11]
  viability at 0.1 µM: 81.3%
[4]; [12]
  cytotoxicity at 10 µM: 0.4%

## CCCCCCCCCCCc1c(C)[nH]c2cc(OC)c(F)cc2c1=O [ELQ-435]
[1]; [9]
  cytotoxicity at 10 µM: 0%
[2]; [10]
  viability at 0.1 µM: 15.6%
[3]; [11]
  viability at 0.1 µM: 80.1%
[4]; [12]
  cytotoxicity at 10 µM: 2.6%

## CCCCCCCCCCCc1c(C)[nH]c2ccccc2c1=O [ELQ-436]
[1]; [9]
  cytotoxicity at 10 µM: 3.1%
[2]; [10]
  viability at 0.1 µM: 14%
[3]; [11]
  viability at 0.1 µM: 16.4%
[4]; [12]
  cytotoxicity at 10 µM: 3.4%

## CCCCCCCCCCCc1c(C)[nH]c2cc(F)cc(F)c2c1=O [ELQ-437]
[5]; [14]
  pIC50: < 4.52
[5]; [15]
  pIC50: < 4.52
[1]; [9]
  cytotoxicity at 10 µM: 33.1%
[1]; isolate Sval, 10 μM
  Activity in PGI assay (activity call): activity
[2]; [10]
  viability at 0.1 µM: 19.7%
[3]; [11]
  viability at 0.1 µM: 19.1%
[4]; [12]
  cytotoxicity at 10 µM: 37.6%
[4]; [16]
  pEC50: 5.77

## CC(C)(C)[C@H]1CC[C@H](CC2=C(O)C(=O)c3ccccc3C2=O)CC1 [buparvaquone]
[6]
  Concentration already affecting the parasite ultrastructure (electron dense mitochondrial matrix): 0.3 µM

## c1ccc2ncncc2c1 [quinazoline, reference compound]
[7]
  PGI release of metacestodes relative to Tx-100: no PGI release
[8]
  Release of succinate by metacestodes compared to DMSO control: significant reduction
